“And” between values parts separate entries of the source, which are not always exact repeats. Equal entries are not always repeated.

13 compounds from PubChem BioAssay AID180 (DTP/NCI, 2004) can be followed below.

This test has as its system BDF1 mice, Adenocarcinoma 755 s.c., tumor weight T/C. The test is described as follows: NCI In Vivo Anticancer Drug Screen. Data for tumor model Adenocarcinoma 755 (subcutaneous) in B6D2F1 (BDF1) mice. The conditions noted are these: endpoint: mean tumor weight, higher = larger tumour. Put shortly:
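Transplantable tumor implanted; mice dosed with compound or vehicle; survival or tumor size recorded; ratio of treated to vehicle control reported.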

Where [1] appears, read: dose: 25.0 mg/kg/injection, schedule: Q01DX011 (ip), vehicle: carboxymethylcellulose (CMC).
The mark [2] stands for this setting: dose: 75.0 mg/kg/injection, schedule: Q01DX011 (ip), vehicle: carboxymethylcellulose (CMC).
Where [3] appears, read: dose: 1.5 mg/kg/injection, schedule: Q01DX011 (ip), vehicle: methylcellulose (MC).
The mark [4] stands for this setting: dose: 3.1 mg/kg/injection, schedule: Q01DX011 (ip), vehicle: methylcellulose (MC).

What is called T/C is the result in the treated group divided by that in the control group, in per cent. `C[C@H]1C[C@H]2[C@@H]3CC[C@](O)(C(=O)CF)[C@@]3(C)C[C@H](O)[C@]2(F)[C@@]2(C)C=CC(=O)C=C12`: the T/C is, setting by setting: (dose: 0.62 mg/kg/injection, schedule: Q01DX011 (sc), vehicle: steriod suspending solution) 89 % of control; (dose: 1.0 mg/kg/injection, schedule: Q01DX011 (sc), vehicle: steriod suspending solution) 76 % of control; (dose: 1.25 mg/kg/injection, schedule: Q01DX011 (sc), vehicle: steriod suspending solution) 69 % of control; (dose: 10.0 mg/kg/injection, schedule: Q01DX011 (sc), vehicle: steriod suspending solution) 16 % of control and 29 % of control and 33 % of control; (dose: 20.0 mg/kg/injection, schedule: Q01DX011 (sc), vehicle: steriod suspending solution) 18 % of control and 27 % of control; (dose: 40.0 mg/kg/injection, schedule: Q01DX011 (sc), vehicle: steriod suspending solution) 11 % of control and 14 % of control. Further, the T/C was 14 % of control (dose: 80.0 mg/kg/injection, schedule: Q01DX011 (sc), vehicle: steriod suspending solution) and 4 % of control (dose: 160.0 mg/kg/injection, schedule: Q01DX011 (sc), vehicle: steriod suspending solution).

For `Nc1nc2c(ncn2C2CCCC2)c(=O)[nH]1`, the T/C runs as follows: under setting [1], 88 % of control; under setting [2], 63 % of control; (dose: 225.0 mg/kg/injection, schedule: Q01DX011 (ip), vehicle: carboxymethylcellulose (CMC)) 59 % of control.

With `[OH-].[OH-].[Pd+2].c1ccc(CSc2ncnc3nc[nH]c23)cc1.c1ccc(CSc2ncnc3nc[nH]c23)cc1.c1ccc(CSc2ncnc3nc[nH]c23)cc1.c1ccc(CSc2ncnc3nc[nH]c23)cc1`, the T/C (dose: 3.0 mg/kg/injection, schedule: Q01DX011 (ip), vehicle: saline) was 76 % of control; the T/C (dose: 6.0 mg/kg/injection, schedule: Q01DX011 (ip), vehicle: saline) is 36 % of control; the T/C (dose: 12.0 mg/kg/injection, schedule: Q01DX011 (ip), vehicle: saline) was 17 % of control; the T/C (dose: 12.5 mg/kg/injection, schedule: Q01DX011 (ip), vehicle: saline) was 16 % of control; the T/C (dose: 25.0 mg/kg/injection, schedule: Q01DX011 (ip), vehicle: saline) was 1 % of control; the T/C (dose: 50.0 mg/kg/injection, schedule: Q01DX011 (ip), vehicle: saline) was 1 % of control. The T/C (dose: 100.0 mg/kg/injection, schedule: Q01DX011 (ip), vehicle: saline) was 1 % of control and the T/C (dose: 200.0 mg/kg/injection, schedule: Q01DX011 (ip), vehicle: saline) is 1 % of control.

`CC[N+](C)(C)c1ncnc2nc[nH]c12`: the T/C is, setting by setting: (dose: 12.0 mg/kg/injection, schedule: Q01DX011 (ip), vehicle: carboxymethylcellulose (CMC)) 88 % of control; (dose: 17.0 mg/kg/injection, schedule: Q01DX011 (ip), vehicle: carboxymethylcellulose (CMC)) 80 % of control; under setting [1], 47 % of control and 52 % of control; (dose: 37.0 mg/kg/injection, schedule: Q01DX011 (ip), vehicle: carboxymethylcellulose (CMC)) 33 % of control; (dose: 50.0 mg/kg/injection, schedule: Q01DX011 (ip), vehicle: carboxymethylcellulose (CMC)) 22 % of control; under setting [2], 6 % of control. For the same compound, the T/C (dose: 100.0 mg/kg/injection, schedule: Q01DX011 (ip), vehicle: carboxymethylcellulose (CMC)) is 3 % of control.

In the case of `Nc1nc(I)c2ncn(C3OC(CO)C(O)C3O)c2n1` (stereo not given), the T/C by setting is: (dose: 30.0 mg/kg/injection, schedule: Q01DX011 (ip), vehicle: saline) 113 % of control; (dose: 60.0 mg/kg/injection, schedule: Q01DX011 (ip), vehicle: saline) 121 % of control; (dose: 120.0 mg/kg/injection, schedule: Q01DX011 (ip), vehicle: saline) 82 % of control; (dose: 240.0 mg/kg/injection, schedule: Q01DX011 (ip), vehicle: saline) 62 % of control; (dose: 400.0 mg/kg/injection, schedule: Q01DX011 (ip), vehicle: saline) 9 % of control; (dose: 600.0 mg/kg/injection, schedule: Q01DX011 (ip), vehicle: saline) 47 % of control.

With `CC(=O)OCC1OC(n2cnc3c(N)ncnc32)CC1OC(C)=O` (stereo not given), the T/C was 55 % of control and 68 % of control (dose: 30.0 mg/kg/injection, schedule: Q01DX011 (ip), vehicle: carboxymethylcellulose (CMC)); 97 % of control and 111 % of control (dose: 120.0 mg/kg/injection, schedule: Q01DX011 (ip), vehicle: carboxymethylcellulose (CMC)); 108 % of control and 109 % of control (dose: 240.0 mg/kg/injection, schedule: Q01DX011 (ip), vehicle: carboxymethylcellulose (CMC)).

As to `CN(N=O)C(=O)C1CC(=O)NC(=O)C1`, the T/C by setting is: (dose: 2.5 mg/kg/injection, schedule: Q01DX011 (ip), vehicle: carboxymethylcellulose (CMC)) 39 % of control; (dose: 5.0 mg/kg/injection, schedule: Q01DX011 (ip), vehicle: carboxymethylcellulose (CMC)) 102 % of control; (dose: 10.0 mg/kg/injection, schedule: Q01DX011 (ip), vehicle: carboxymethylcellulose (CMC)) 114 % of control.

For `CCOC1=C(N2CC2)C(=O)C(OCC)=C(N2CC2)C1=O`, the T/C (dose: 0.08 mg/kg/injection, schedule: Q01DX011 (ip), vehicle: carboxymethylcellulose (CMC)) was 36 % of control; the T/C (dose: 0.12 mg/kg/injection, schedule: Q01DX011 (ip), vehicle: carboxymethylcellulose (CMC)) was 94 % of control; the T/C (dose: 0.16 mg/kg/injection, schedule: Q01DX011 (ip), vehicle: carboxymethylcellulose (CMC)) was 46 % of control; the T/C (dose: 0.25 mg/kg/injection, schedule: Q01DX011 (ip), vehicle: carboxymethylcellulose (CMC)) is 55 % of control; the T/C (dose: 0.32 mg/kg/injection, schedule: Q01DX011 (ip), vehicle: carboxymethylcellulose (CMC)) was 48 % of control; the T/C (dose: 0.5 mg/kg/injection, schedule: Q01DX011 (ip), vehicle: carboxymethylcellulose (CMC)) was 71 % of control. For the same compound, the T/C was 35 % of control (dose: 0.63 mg/kg/injection, schedule: Q01DX011 (ip), vehicle: carboxymethylcellulose (CMC)); 44 % of control (dose: 1.0 mg/kg/injection, schedule: Q01DX011 (ip), vehicle: carboxymethylcellulose (CMC)); 21 % of control (dose: 2.5 mg/kg/injection, schedule: Q01DX011 (ip), vehicle: methylcellulose (MC)); 111 % of control (dose: 10.0 micrograms/kg/injection, schedule: Q01DX011 (ip), vehicle: carboxymethylcellulose (CMC)); 98 % of control (dose: 40.0 micrograms/kg/injection, schedule: Q01DX011 (ip), vehicle: carboxymethylcellulose (CMC)); 115 % of control (dose: 80.0 micrograms/kg/injection, schedule: Q01DX011 (ip), vehicle: carboxymethylcellulose (CMC)).

Consider `CCCCNc1cc(=O)[nH]c(N)n1`, for which the T/C (dose: 55.0 mg/kg/injection, schedule: Q01DX011 (ip), vehicle: methylcellulose (MC)) was 53 % of control.

For `CC(C)Sc1nc(N)nc2c1ncn2C1OC(CO)C(O)C1O` (stereo not given), the T/C (dose: 0.38 mg/kg/injection, schedule: Q01DX011 (ip), vehicle: methylcellulose (MC)) was 48 % of control; the T/C (dose: 0.75 mg/kg/injection, schedule: Q01DX011 (ip), vehicle: methylcellulose (MC)) is 60 % of control; the T/C under setting [3] was 40 % of control; the T/C (dose: 3.0 mg/kg/injection, schedule: Q01DX011 (ip), vehicle: methylcellulose (MC)) was 36 % of control; the T/C under setting [4] was 3 % of control.

Regarding `Cn1cnc2nc[nH]c2c1=O`, the T/C runs as follows: (dose: 31.2 mg/kg/injection, schedule: Q01DX011 (ip), vehicle: carboxymethylcellulose (CMC)) 95 % of control; (dose: 62.5 mg/kg/injection, schedule: Q01DX011 (ip), vehicle: carboxymethylcellulose (CMC)) 99 % of control; (dose: 125.0 mg/kg/injection, schedule: Q01DX011 (ip), vehicle: carboxymethylcellulose (CMC)) 108 % of control; (dose: 250.0 mg/kg/injection, schedule: Q01DX011 (ip), vehicle: carboxymethylcellulose (CMC)) 116 % of control.

On to `Clc1ncnc2c1ncn2C1CCCO1` (stereo not given), for which the T/C by setting is: (dose: 2.34 mg/kg/injection, schedule: Q01DX011 (ip), vehicle: methylcellulose (MC)) 50 % of control; (dose: 4.68 mg/kg/injection, schedule: Q01DX011 (ip), vehicle: methylcellulose (MC)) 68 % of control; (dose: 9.37 mg/kg/injection, schedule: Q01DX011 (ip), vehicle: methylcellulose (MC)) 69 % of control; (dose: 18.75 mg/kg/injection, schedule: Q01DX011 (ip), vehicle: methylcellulose (MC)) 41 % of control; (dose: 37.5 mg/kg/injection, schedule: Q01DX011 (ip), vehicle: methylcellulose (MC)) 9 % of control; (dose: 75.0 mg/kg/injection, schedule: Q01DX011 (ip), vehicle: methylcellulose (MC)) 1 % of control.

In the case of `CCCNc1ncnc2c1cnn2C1CCCO1` (stereo not given), the T/C reads like this: under setting [3], 75 % of control; under setting [4], 66 % of control; (dose: 6.2 mg/kg/injection, schedule: Q01DX011 (ip), vehicle: methylcellulose (MC)) 27 % of control; (dose: 12.5 mg/kg/injection, schedule: Q01DX011 (ip), vehicle: methylcellulose (MC)) 3 % of control and 4 % of control.
